Where two headings read alike, the source gives them in different places.
Columns and labels:
[1] = system: Human RSV-A (“Long” strain); test: RSV-A assay: inhibition of cytopathic effect in Hep-2 cells, ATPlite readout; assay type: cell-based, Human respiratory syncytial virus (HRSV); details: read-out: Human RSV-A (“Long” strain) EC50
Procedure, shortened: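 Cytopathic-effect protection was read as ATP content (ATPlite luminescence) after a 5-day incubation. Setup: Hep-2 cells at 8,000 per well, RSV-A Long at MOI 0.1, 2-fold serial compound dilutions in duplicate. Cytotoxicity (CC50) was measured on an identical uninfected plate run in parallel.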

[2] = Cytotoxicity on parallel plate without virus, ATPlite readout; assay type: cell-based; details: human, Hep-2 cells (no virus), Hep-2 cells without virus, 5-day incubation
Experimental: Following extensive parameter testing, the final assay is run as follows: Hep-2 cells are seeded into the inner 60 wells of a 96-well plate at 8,000 cells per well in a volume of 50 μL using Growth Media (DMEM without phenol red, 1% L-Glut, 1% Penn/Strep, 1% nonessential amino acids, 10% heat-inactivated FBS). 2-fold serial dilutions of control and test compounds are added to the wells in duplicate in a total volume of 25 μL. Viral stock is then added to the wells at a multiplicity of infection (MOI) of 0.1 in a volume of 25 μL, bringing the total volume of each well to 100 μL. The MOI is calculated using the PFU/mL, or TCID50 if unavailable. Each 96-well plate has a control column of 6 wells with cells and virus but no compound (negative control, max CPE), a column with cells but no compound or virus (positive control, minimum CPE), and a column with no cells or virus or compound (background plate/reagent control). The control wells with cells but no virus are given an additional 25 uL of growth media containing an equal quantity of sucrose as those wells receiving the viral stock in order to keep consistent in media and volume conditions. The outer wells of the plate are filled with 125 μL of moat media (DMEM, 1% Penn/Strep) to act as a thermal and evaporative moat around the test wells. Following a 5-day incubation period, the plates are read using ATPlite (50 uL added per well), which quantifies the amount of ATP (a measure of cell health) present in each well. Assay plates are read using the Envision luminometer. In parallel, cytotoxicity is examined on an additional 96-well plate treated in an identical manner, but substituting the 25 μL of viral stock for 25 μL of growth media. […] EC50 ranges are as follows: A<0.4 μM; B 0.4-0.8 μM; C>0.8 μM and CC50 ranges are as follows: A>50 μM; B 10-50 μM; C<10 μM.

[3] = human respiratory syncytial virus, HEp-2, 120 h

In the case of COc1ccc(-c2nnc(NC3N=C(c4ccccc4)c4ccccc4NC3=O)o2)cn1 (stereo not drawn) [Example 54], the EC50 [1, 3] is reported as < 0.4 µM and the CC50 at 5 days [2] is reported as > 50 µM.
For O=C1Nc2ccccc2C(c2ccccc2)=NC1Nc1nnc(-c2ccccc2)o1 (stereo not drawn) [Example 2], the EC50 [1, 3] was > 0.8 µM and the CC50 at 5 days [2] was > 50 µM.
In the case of O=C1Nc2ccccc2C(c2ccccc2)=NC1Nc1nnc(-c2ncco2)o1 (stereo not drawn) [Example 70], the EC50 [1, 3] is reported as > 0.8 µM and the CC50 at 5 days [2] is reported as > 50 µM.
With O=C1Nc2ccccc2C(c2ccccc2)=NC1Nc1nnc(-c2ccncn2)o1 (stereo not drawn) [Example 63] the EC50 [1, 3] was > 0.8 µM and the CC50 at 5 days [2] was > 50 µM.
In the case of CN1CCc2nc(-c3nnc(NC4N=C(c5ccccc5)c5ccccc5NC4=O)o3)sc2C1 (stereo not drawn) [Example 44], the EC50 [1, 3] is reported as > 0.8 µM and the CC50 at 5 days [2] is reported as > 50 µM.
For O=C1Nc2ccccc2C(c2ccccc2)=NC1Nc1nc(N2CCOCC2)ns1 (stereo not drawn) [Example 88], the EC50 [1, 3] was > 0.8 µM and the CC50 at 5 days [2] was 10 to 50 µM.
For O=C1Nc2ccccc2C(c2ccccc2)=NC1Nc1nnc(-c2ccc(F)nc2)o1 (stereo not drawn) [Example 53], the EC50 [1, 3] was 0.4 to 0.8 µM and the CC50 at 5 days [2] was > 50 µM.
For O=C1Nc2ccccc2C(c2ccccc2)=NC1Nc1nnc(-c2ccc(=O)[nH]c2)o1 (stereo not drawn) [Example 39], the EC50 [1, 3] was > 0.8 µM and the CC50 at 5 days [2] was > 50 µM.
With Cc1ccc2oc(NC3N=C(c4ccccc4)c4ccccc4NC3=O)nc2c1 (stereo not drawn) [Example 106] the EC50 [1, 3] was > 0.8 µM and the CC50 at 5 days [2] was < 10 µM.
For CS(=O)(=O)c1ccc(-c2nnc(NC3N=C(c4ccccc4)c4ccccc4NC3=O)o2)cc1 (stereo not drawn) [Example 27], the EC50 [1, 3] was > 0.8 µM and the CC50 at 5 days [2] was > 50 µM.
With O=C1Nc2ccccc2C(c2ccccc2)=NC1Nc1nnc(-c2ccc(C(F)(F)F)cc2)o1 (stereo not drawn) [Example 28] the EC50 [1, 3] was > 0.8 µM and the CC50 at 5 days [2] was > 50 µM.
For O=C1Nc2ccccc2C(c2ccccc2)=NC1Nc1nnc(-c2ccc(F)cc2F)o1 (stereo not drawn) [Example 50], the EC50 [1, 3] was > 0.8 µM and the CC50 at 5 days [2] was > 50 µM.
With Cc1nnc(NC2N=C(c3ccccc3)c3ccccc3NC2=O)o1 (stereo not drawn) [Example 18] the EC50 [1, 3] was > 0.8 µM and the CC50 at 5 days [2] was > 50 µM.
In the case of O=C1Nc2ccccc2C(c2ccccc2)=NC1Nc1nc2ccc(F)cc2o1 (stereo not drawn) [Example 103], the EC50 [1, 3] is reported as > 0.8 µM and the CC50 at 5 days [2] is reported as 10 to 50 µM.
In the case of N#Cc1ccc(-c2nnc(NC3N=C(c4ccccc4)c4ccccc4NC3=O)o2)cc1F (stereo not drawn) [Example 33], the EC50 [1, 3] is reported as > 0.8 µM and the CC50 at 5 days [2] is reported as > 50 µM.
For COc1cccc(-c2nnc(NC3N=C(c4ccccc4)c4ccccc4NC3=O)o2)c1 (stereo not drawn) [Example 4], the EC50 [1, 3] was > 0.8 µM and the CC50 at 5 days [2] was > 50 µM.
With N#Cc1cc(-c2nnc(NC3N=C(c4ccccc4)c4ccccc4NC3=O)o2)ccn1 (stereo not drawn) [Example 38] the EC50 [1, 3] was > 0.8 µM and the CC50 at 5 days [2] was > 50 µM.
For O=C1Nc2ccccc2C(c2ccccc2)=NC1Nc1nnc(-c2cccnc2)o1 (stereo not drawn) [Example 37], the EC50 [1, 3] was > 0.8 µM and the CC50 at 5 days [2] was > 50 µM.
In the case of O=C1Nc2ccccc2C(c2ccccc2)=NC1Nc1nnc(-c2ccc(-n3cccn3)cc2)o1 (stereo not drawn) [Example 36], the EC50 [1, 3] is reported as 0.4 to 0.8 µM and the CC50 at 5 days [2] is reported as 10 to 50 µM.
In the case of O=C1Nc2ccccc2C(c2ccccc2)=NC1Nc1nc2cc(F)ccc2o1 (stereo not drawn) [Example 104], the EC50 [1, 3] is reported as > 0.8 µM and the CC50 at 5 days [2] is reported as 10 to 50 µM.
With Cc1ccc(-c2nnc(NC3N=C(c4ccccc4)c4ccccc4NC3=O)o2)s1 (stereo not drawn) [Example 19] the EC50 [1, 3] was > 0.8 µM and the CC50 at 5 days [2] was > 50 µM.
For O=C1Nc2ccccc2C(c2ccccc2)=NC1Nc1nnc(-c2ccc3nc[nH]c3c2)o1 (stereo not drawn) [Example 41], the EC50 [1, 3] was > 0.8 µM and the CC50 at 5 days [2] was > 50 µM.
With O=C1Nc2ccccc2C(c2ccccc2)=NC1Nc1nnc(-c2ccncc2)s1 (stereo not drawn) [Example 83] the EC50 [1, 3] was > 0.8 µM and the CC50 at 5 days [2] was > 50 µM.
For O=C1Nc2c(Cl)cccc2C(c2ccccc2)=NC1Nc1nnc(-c2ccccc2N2CCOCC2)o1 (stereo not drawn) [Example 362], the EC50 [1, 3] was > 0.8 µM.
For CS(=O)(=O)Cc1nnc(NC2N=C(c3ccccc3)c3ccccc3NC2=O)o1 (stereo not drawn) [Example 194], the EC50 [1, 3] was > 0.8 µM.
In the case of N#Cc1ccc(-c2nnc(N[C@H]3N=C(c4ccccc4)c4ccccc4NC3=O)o2)c(-c2ccsc2)c1 [Example 309], the EC50 [1, 3] is reported as > 0.8 µM.
For COC[C@H]1CCCN1c1sc(C(F)(F)F)nc1-c1nnc(N[C@H]2N=C(c3ccccc3)c3ccccc3NC2=O)o1 [Example 456], the EC50 [1, 3] was > 0.8 µM.
With O=C1Nc2ccccc2C(c2ccccc2)=N[C@@H]1Nc1nnc(-c2cnn(-c3ccccc3)c2)o1 [Example 350] the EC50 [1, 3] was 0.4 to 0.8 µM.
With O=C1Nc2ccccc2C(c2ccccc2)=NC1Nc1ccc(-c2ccncc2)nn1 (stereo not drawn) [Example 375] the EC50 [1, 3] was > 0.8 µM.
In the case of O=C1Nc2ccccc2C(c2ccccc2)=NC1Nc1nnc(-c2ccc(-n3ccnc3)nc2)o1 (stereo not drawn) [Example 232], the EC50 [1, 3] is reported as > 0.8 µM.
For CC(C)(Cc1ccccc1)c1nnc(NC2N=C(c3ccccc3)c3ccccc3NC2=O)o1 (stereo not drawn) [Example 208], the EC50 [1, 3] was > 0.8 µM.
In the case of O=C1Nc2ccccc2C(c2ccccc2)=NC1Nc1ccc(-c2ccccc2N2CCOCC2)nn1 (stereo not drawn) [Example 378], the EC50 [1, 3] is reported as > 0.8 µM.
In the case of COC1CN(c2cc(C(F)(F)F)cnc2-c2nnc(N[C@H]3N=C(c4ccccc4)c4ccccc4NC3=O)o2)C1 [Example 271], the EC50 [1, 3] is reported as > 0.8 µM.
In the case of O=C1Nc2ccccc2C(c2ccccc2)=N[C@@H]1Nc1nnc(-c2ccc(N3CCCC3)cc2N2CCOCC2)o1 [Example 317], the EC50 [1, 3] is reported as < 0.4 µM.
In the case of O=C1Nc2ccccc2C(c2ccccc2)=NC1Nc1nnc(-c2ccc(-n3cncn3)cc2N2CCOCC2)o1 (stereo not drawn) [Example 128], the EC50 [1, 3] is reported as 0.4 to 0.8 µM.
O=C1Nc2ccccc2C(c2ccccc2)=NC1Nc1nnc(-c2ccncc2N2CCOCC2)o1 (stereo not drawn) [Example 142] gave an EC50 [1, 3] of 0.4 to 0.8 µM.
With O=C1Nc2ccccc2C(c2ccccc2)=NC1Nc1nnc(-c2ccc(N3CCOCC3)cn2)o1 (stereo not drawn) [Example 114] the EC50 [1, 3] was > 0.8 µM.
For COc1ccc(CN2C(=O)C(C)(N)N=C(c3ccccc3)c3ccccc32)cc1 (stereo not drawn) [Example 102], the EC50 [1, 3] was > 0.8 µM.
For CN(C)c1cc(C(F)(F)F)cnc1-c1nnc(N[C@H]2N=C(c3ccccc3)c3ccccc3NC2=O)o1 [Example 302], the EC50 [1, 3] was > 0.8 µM.
For CC1(c2nc(-c3nnc(N[C@H]4N=C(c5ccccc5)c5ccccc5NC4=O)o3)c(N3CCOCC3)s2)CCC1 [Example 478], the EC50 [1, 3] was < 0.4 µM.
For O=C1Nc2ccccc2C(c2ccccc2)=NC1Nc1nnc(-c2cccnc2N2C3CCC2COC3)o1 (stereo not drawn) [Example 265], the EC50 [1, 3] was > 0.8 µM.
For O=C1Nc2ccccc2C(c2ccccc2)=NC1Nc1nnc(C2CCCC2)o1 (stereo not drawn) [Example 197], the EC50 [1, 3] was > 0.8 µM.
For O=C1Nc2ccccc2C(c2ccccc2)=NC1Nc1nnc(-c2cnccc2N2CCOCC2)o1 (stereo not drawn) [Example 133], the EC50 [1, 3] was 0.4 to 0.8 µM.
With O=C1Nc2ccccc2C(c2ccccc2)=NC1Nc1cc(N2CCOCC2)cnn1 (stereo not drawn) [Example 463] the EC50 [1, 3] was > 0.8 µM.
With CC1(Nc2nnc(-c3ccc(F)cc3)o2)N=C(c2ccccc2)c2ccccc2NC1=O (stereo not drawn) [Example 230] the EC50 [1, 3] was > 0.8 µM.
Compound O=C1Nc2ccccc2C(c2ccccc2)=N[C@@H]1Nc1nnc(-c2ncc(C(F)(F)F)cc2N[C@H]2CCC[C@H]2O)o1 [Example 422] has an EC50 [1, 3] of 0.4 to 0.8 µM.
In the case of CO[C@@H]1COC[C@H]1Nc1cc(C(F)(F)F)cnc1-c1nnc(N[C@H]2N=C(c3ccccc3)c3ccccc3NC2=O)o1 [Example 436], the EC50 [1, 3] is reported as < 0.4 µM.
In the case of COCCOc1ccc(-c2nnc(NC3N=C(c4ccccc4)c4ccccc4NC3=O)o2)cc1 (stereo not drawn) [Example 236], the EC50 [1, 3] is reported as > 0.8 µM.
In the case of COC1CCN(c2ncccc2-c2nnc(NC3N=C(c4ccccc4)c4ccccc4NC3=O)o2)CC1 (stereo not drawn) [Example 254], the EC50 [1, 3] is reported as > 0.8 µM.
In the case of COC[C@H]1C[C@@H]1c1cc(C(F)(F)F)cnc1-c1nnc(N[C@H]2N=C(c3ccccc3)c3ccccc3NC2=O)o1 [Example 482], the EC50 ([1]; Hep-2 cells, MOI 0.1, 5-day incubation, ATPlite) is reported as > 0.8 µM.
In the case of CN1CCN(c2cc(C(F)(F)F)cnc2-c2nnc(N[C@H]3N=C(c4ccccc4)c4ccccc4NC3=O)o2)CC1=O [Example 296], the EC50 [1, 3] is reported as > 0.8 µM.
With O=C1Nc2ccccc2C(c2ccccc2)=NC1Nc1nnc([C@@H]2CCCO2)o1 (stereo partly drawn) [Example 207] the EC50 [1, 3] was > 0.8 µM.
